Several values for one entry are separate records, joined by “and”; a condition that tells them apart may be missing. Equal entries are not always repeated. Where two headings read alike, the source gives them in different places.
What was measured:
[1] = molecular target: T1, human calpain (Homo sapiens, UniProt P07384); assay: Human calpain activity assay; assay type: biochemical; details: triplicate, read-out: %inhibition against humanCalpain
T1 sequence (P07384 2-714): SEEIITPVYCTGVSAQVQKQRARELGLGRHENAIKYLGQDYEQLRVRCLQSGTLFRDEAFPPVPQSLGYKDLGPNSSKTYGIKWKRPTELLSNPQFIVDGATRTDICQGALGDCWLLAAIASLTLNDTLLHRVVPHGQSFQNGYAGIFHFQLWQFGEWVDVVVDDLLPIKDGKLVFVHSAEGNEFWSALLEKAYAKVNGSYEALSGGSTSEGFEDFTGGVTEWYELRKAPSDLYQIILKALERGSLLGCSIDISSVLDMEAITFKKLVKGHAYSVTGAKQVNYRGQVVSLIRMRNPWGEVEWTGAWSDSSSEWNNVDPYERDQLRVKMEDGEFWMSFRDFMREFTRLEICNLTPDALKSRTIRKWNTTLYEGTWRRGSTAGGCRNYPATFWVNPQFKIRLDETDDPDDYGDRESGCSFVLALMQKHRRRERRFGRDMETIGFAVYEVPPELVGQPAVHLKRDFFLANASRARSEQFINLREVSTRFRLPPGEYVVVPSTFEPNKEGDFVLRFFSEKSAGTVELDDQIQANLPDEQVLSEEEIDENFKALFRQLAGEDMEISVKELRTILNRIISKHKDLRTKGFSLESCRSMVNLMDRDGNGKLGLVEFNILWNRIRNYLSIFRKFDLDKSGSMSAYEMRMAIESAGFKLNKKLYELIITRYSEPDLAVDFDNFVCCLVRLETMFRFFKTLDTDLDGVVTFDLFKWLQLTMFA
T1 sequence (P04632 1-268 partner): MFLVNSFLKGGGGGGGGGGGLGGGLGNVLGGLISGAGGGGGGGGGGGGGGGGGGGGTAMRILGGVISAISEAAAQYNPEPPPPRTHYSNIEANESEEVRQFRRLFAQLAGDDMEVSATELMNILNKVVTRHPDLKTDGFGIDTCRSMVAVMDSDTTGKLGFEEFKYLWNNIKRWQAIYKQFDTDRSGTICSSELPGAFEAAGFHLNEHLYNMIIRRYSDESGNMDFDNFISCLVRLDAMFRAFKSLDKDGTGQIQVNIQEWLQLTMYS

[2] = system: SARS-CoV-2^WK-521; assay: microbe, parasite or virus in culture; assay type: cell-based; parameters: EC95, individual assays / EC95, Average: unit: µM
[3] = system: SARS-CoV-2 TKYX00012/ο BA.1; assay: microbe, parasite or virus in culture; assay type: cell-based
[4] = system: SARS-CoV-2 TKYS02037/ο BA.2; assay: microbe, parasite or virus in culture; assay type: cell-based
[5] = system: SARS-CoV-2 TKYTS14631/ο BA.5; assay: microbe, parasite or virus in culture; assay type: cell-based
[6] = system: SARS-CoV-2 UT-NCD1757-1N/ο BA.2.75; assay: microbe, parasite or virus in culture; assay type: cell-based
[7] = system: SARS-CoV-2^WK521 in HeLa-ACE2-TMPRSS2 cells; assay: Antiviral assay, HeLa-ACE2-TMPRSS2 cells, WK521; assay type: cell-based
[8] = system: SARS-CoV-2^WK521 in A549-ACE2-TMPRSS2 cells; assay: Antiviral assay, A549-ACE2-TMPRSS2 cells, WK521; assay type: cell-based
[9] = Pharmacokinetic study in PXB-mice (human liver-chimeric); details: 10 mg/kg; for Plasma concentration: PXB-mice, i.v. 10 mg/kg, individual mice

CC(C)(C)[C@H](NC(=O)C(F)(F)F)C(=O)N1C[C@H]2[C@@H]([C@H]1C(=O)N[C@H](C#N)C[C@@H]1CCNC1=O)C2(C)C [Nirmatrelvir, reference compound]
inhibition at 0.000128 µM ([1]; 0.000128 µM): 0% | inhibition at 0.00064 µM ([1]; 0.00064 µM): 0% | inhibition at 0.0032 µM ([1]; 0.0032 µM): 0% | inhibition at 0.08 µM ([1]; 0.08 µM): 0% | inhibition at 0.4 µM ([1]; 0.4 µM): 0% | EC95, Average [2]: 7.815 | EC95, individual assays [2]: 8.01 and 9.89 and 6.31 and 7.05 | SARS-CoV2 RNA VeroE6 cell-based assay EC95 [2]: 7810 ± 1550 nM | EC50 ([2]; Severe acute respiratory syndrome coronavirus 2, Vero C1008, read-out: EC50, Average): 942 nM | EC50 ([2]; Severe acute respiratory syndrome coronavirus 2, Vero C1008, read-out: EC50, VeroE6 + 2 µM CP100356): 25 nM | EC50 ([2]; Severe acute respiratory syndrome coronavirus 2, Vero C1008, read-out: EC50, VeroE6 with CP100356, Average): 25 nM | EC50 ([2]; Severe acute respiratory syndrome coronavirus 2, Vero C1008, read-out: EC50, VeroE6 with CP100356, individual assays): 22 nM | EC50 ([2]; Severe acute respiratory syndrome coronavirus 2, Vero C1008, read-out: SARS-CoV2 RNA VeroE6 cell-based assay EC50): 940 ± 210 nM | EC50 ([2]; read-out: EC50, Average): 1020 nM | EC50 ([2]; read-out: EC50, VeroE6 with CP100356, individual assays): 27 nM | EC50 ([2]; read-out: EC50, individual assays): 1090 nM and 700 nM and 1150 nM and 830 nM and 1470 nM | EC50 ([3]; Severe acute respiratory syndrome coronavirus 2, Vero C1008, read-out: EC50 against KTKYX00012/ο BA.1): 1050 ± 61 nM | EC50 ([3]; Severe acute respiratory syndrome coronavirus 2, Vero C1008, read-out: EC50 ο BA1, Average): 1050 nM | EC50 ([3]; Severe acute respiratory syndrome coronavirus 2, Vero C1008, read-out: EC50 ο BA1, individual assays): 1100 nM | EC50 ([3]; read-out: EC50 ο BA1, individual assays): 1060 nM and 980 nM | EC50 ([4]; Severe acute respiratory syndrome coronavirus 2, Vero C1008, read-out: EC50 against TKYVS2037/ο BA.2): 1240 ± 125 nM | EC50 ([4]; Severe acute respiratory syndrome coronavirus 2, Vero C1008, read-out: EC50 ο BA2, individual assays): 1230 nM | EC50 ([4]; read-out: EC50 ο BA2, individual assays): 1120 nM and 1370 nM | EC50 ([5]; Severe acute respiratory syndrome coronavirus 2, Vero C1008, read-out: EC50 against TKYTS14631/ο BA.5): 1080 ± 150 nM | EC50 ([5]; Severe acute respiratory syndrome coronavirus 2, Vero C1008, read-out: EC50 ο BA5, Average): 1080 nM | EC50 ([5]; Severe acute respiratory syndrome coronavirus 2, Vero C1008, read-out: EC50 ο BA5, individual assays): 999 nM | EC50 ([5]; read-out: EC50 ο BA5, individual assays): 988 nM and 1250 nM | EC50 ([6]; Severe acute respiratory syndrome coronavirus 2, Vero C1008, read-out: EC50 against UT-NCD1757-1N/ο BA.2.75): 967 ± 135 nM | EC50 ([6]; Severe acute respiratory syndrome coronavirus 2, Vero C1008, read-out: EC50 ο BA2.75, Average): 967 nM | EC50 ([6]; Severe acute respiratory syndrome coronavirus 2, Vero C1008, read-out: EC50 ο BA2.75, individual assays): 830 nM | EC50 ([6]; read-out: EC50 ο BA2.75, individual assays): 970 nM and 1100 nM | EC50 ([7]; Severe acute respiratory syndrome coronavirus 2, SARS-CoV-2^WK521, read-out: EC50, HeLa-ACE2-TMPRSS2): 240 ± 50 nM | EC50 ([7]; Severe acute respiratory syndrome coronavirus 2, read-out: EC50, HeLa-AEC2-TMPRSS2, individual assays, source data): 300 nM | EC50 ([7]; Severe acute respiratory syndrome coronavirus 2, source data, read-out: EC50, HeLa-AEC2-TMPRSS2, Average): 237 nM | EC50 ([7]; read-out: EC50, HeLa-AEC2-TMPRSS2, individual assays, source data): 200 nM and 210 nM | EC50 ([8]; Severe acute respiratory syndrome coronavirus 2, SARS-CoV-2^WK521, read-out: EC50, A549-ACE2-TMPRSS2): 17 ± 3 nM | EC50 ([8]; Severe acute respiratory syndrome coronavirus 2, source data, read-out: EC50, A549-AEC2-TMPRSS2, Average): 17.4 nM | EC50 ([8]; Severe acute respiratory syndrome coronavirus 2, source data, read-out: EC50, A549-AEC2-TMPRSS2, individual assays): 20 nM | EC50 ([8]; source data, read-out: EC50, A549-AEC2-TMPRSS2, individual assays): 17.4 nM and 14.8 nM | concentration at 10 min ([9]; PXB (human liver-chimeric), mouse, plasma, po, plasma concentration, 10 min, individual animals (3 per time point), LC/MS/MS): 1600 ng/mL | concentration at 240 min ([9]; PXB (human liver-chimeric), mouse, plasma, po, plasma concentration, 240 min, individual animals (3 per time point), LC/MS/MS): 47.2 ng/mL | concentration at 1440 min ([9]; PXB (human liver-chimeric), mouse, plasma, po, plasma concentration, 1440 min, individual animals (3 per time point), LC/MS/MS): 0.63 ng/mL | Plasma concentration ([9]; 10 min): 5525.9 ng/mL and 4420.7 ng/mL | Plasma concentration ([9]; 0.17 hr): 5530 ng/mL and 4420 ng/mL | Plasma concentration ([9]; 60 min): 305.4 ng/mL and 496.6 ng/mL | Plasma concentration ([9]; 1 hr): 310 ng/mL and 500 ng/mL | Plasma concentration ([9]; 240 min): 10 ng/mL and 10.6 ng/mL and 46.3 ng/mL | Plasma concentration ([9]; 4 hr): 0.01 µg/ml (2×) and 0.05 µg/ml
